Measurements: patent US9340538B2, “Dihydropyrimidine compounds and their application in pharmaceuticals” (SUNSHINE LAKE PHARMA CO., LTD., priority 2013, dated 2016)

Tests used:
HBV = test: In-vitro anti-HBV activity in stable HBV-producing cell line (HepG2.2.15), HBV DNA in culture fluid by qPCR; assay type: cell-based; conditions: Hepatitis B virus, 168 h; 500 nmol final concentration, HepG2.2.15 cells, HBV DNA in culture media on day 7 post seeding, vs DMSO control; read-out: HBV (% Inh.) (500 nmol)
Description: In-Vitro Anti-HBV Activity of Compounds in Stable HBV-Producing Cell Line (HepG2.2.15)
HBV DNA contents in cell culture fluid were detected by the qPCR-based assay and percents of HBV inhibition by compounds (% Inh) were calculated. Specific procedures are as follows:
HepG2.2.15 cells were seeded into each well of 96-well plates, 40,000 cells per well. Cells were treated with cell culture medium containing compounds 24 hours after cell seeding. Each compound to detected percent inhibition was in duplicate and the final concentration of each compound was 500 nmol in each well. The compound-containing mediums were refreshed on day 4 post cell seeding. Culture media were collected from the HepG2.2.15 plates on day 7 post cell seeding followed by HBV DNA extraction.
HBV DNA extraction: using QIAamp 96 DNA Blood Kit (QIAGEN 51161).
PCR for quantification: PCR mix was prepared according to PCR system; PCR mix was dispensed to 384-well optical reaction plates (special for quantification); The standard diluted proportionally was added; The sample was added; The plates were sealed with optical adhesive film; PCR system was performed according to programs.
Percent of HBV inhibition of DNA replication by compound was calculated using the following equation: % Inh.=[1-HBV DNA quantity of sample/HBV DNA quantity of DMSO control]*100. II. Assay Results

[1] = Test compounds' PK assay in ICR mice; assay type: in vivo; conditions: mouse, plasma; for AUC(0-t): AUC in 0-24 hours; for AUC(0-inf): AUC in 0 hour to infinite time
Description: The test compounds were poured into ICR mice stomach through mouth with 10 mg/kg or administered 2 mg/kg or 10 mg/kg to ICR mice by tail-intravenous injection. Blood sample of orbital vein was taken at 0.083, 0.25, 0.5, 1, 2, 4, 6, 8 and 24 hours after administration, and collected in anticoagulation tube added with EDTA-K2. The test compounds were extracted from plasma samples and chromatographed on a tandem mass spectrometer. Quantitation was performed using multiple reaction monitoring (MRM). Pharmacokinetic parameters were calculated using WinNonlin 6.1 software with non compartment model.

CCOC(=O)C1=C(CN2CCOC(CCC(=O)O)C2)NC(c2nccs2)=NC1c1ccc(F)cc1Br (centres unmarked) [Example 129, 3-(4-((6-(2-bromo-4-fluorophenyl)-5-(ethoxycarbonyl)-2-(thiazol-2-yl)-3,6-dihydropyrimidin-4-yl)methyl)morpholin-2-yl)propanoic acid]
inhibition at 0.5 µM (HBV): 92%
Cmax ([1]; iv, 2 mg/kg): 3860 ng/mL
Tmax ([1]; iv, 2 mg/kg): 4.8 min
clearance ([1]; iv, 2 mg/kg): 20.3 mL/min/kg
half-life ([1]; iv, 2 mg/kg): 2.42 h
AUC(0-t) ([1]; iv, 2 mg/kg): 1630 ng·h/mL
AUC(0-inf) ([1]; iv, 2 mg/kg): 1640 ng·h/mL
Vd ([1]; iv, 2 mg/kg, read-out: Vss): 0.9 L/kg
Cmax ([1]; po, 10 mg/kg): 8610 ng/mL
Tmax ([1]; po, 10 mg/kg): 4.8 min
half-life ([1]; po, 10 mg/kg): 6.62 h
AUC(0-t) ([1]; po, 10 mg/kg): 5330 ng·h/mL
AUC(0-inf) ([1]; po, 10 mg/kg): 5350 ng·h/mL
bioavailability ([1]; po, 10 mg/kg, read-out: F (absolute bioavailability)): 65.2%
